Source: paper doi:10.1101/630459v1 (bioRxiv, 2019)
Marks after values point to notes of the source that are not given here. Blank lines part the entries; values can stand above or below the compound they belong to.

Tests used:
Assay type in all cases: in vivo, BALB/cAnNRj mice
active caspase-3 = assay: Indirect immunohistochemistry of active caspase-3 in organ cryosections
Serum parameter analysis = assay: Serum parameter analysis
Blood parameter analysis = assay: Blood parameter analysis
[1] = cisplatin 20 mg/kg BW i.p. once, day 3, n = 3, mean ± SD
[2] = cisplatin 20 mg/kg BW i.p. once, d1, mean, n = 3
[3] = cisplatin 20 mg/kg BW i.p. once, d2, mean, n = 8
[4] = cisplatin 20 mg/kg BW i.p. once, d2, mean, n = 9
[5] = cisplatin 20 mg/kg BW i.p. once, d3, mean, n = 4
[6] = cisplatin 20 mg/kg BW i.p. once, d2, mean, n = 12
[7] = cisplatin 20 mg/kg BW i.p. once, d3, mean, n = 5
[8] = busulfan 18.8 mg/kg i.p. day 0, 2, 4, day 5, n = 5, mean ± SD
[9] = busulfan 18.8 mg/kg i.p., d3, mean, n = 6
[10] = busulfan 18.8 mg/kg i.p., d5, mean, n = 10
[11] = busulfan 18.8 mg/kg i.p., d5, mean, n = 11
[12] = doxorubicin 4 mg/kg BW i.p. day 0, 7, 14, day 15, n = 3, mean ± SD
[13] = doxorubicin 4 mg/kg BW i.p. day 0, 7, 14, day 15, n = 4, mean ± SD
[14] = doxorubicin 4 mg/kg BW i.p., d8, mean, n = 3
[15] = doxorubicin 4 mg/kg BW i.p., d15, mean, n = 4

SMILES: N.N.[Cl][Pt][Cl] [Cisplatin]
caspase-3 activation, kidneys (active caspase-3; cisplatin 20 mg/kg BW i.p. once, day 2, n = 3, mean ± SD): 1.0 ± 0.1 % area
caspase-3 activation, liver (active caspase-3; [1]): 4.3 ± 0.7 % area
caspase-3 activation, lungs (active caspase-3; [1]): 0.5 ± 0.1 % area
caspase-3 activation, spleen (active caspase-3; cisplatin 20 mg/kg BW i.p. once, day 3, n = 4, mean ± SD): 10.5 ± 4.8 % area
ALT (Serum parameter analysis; [2]): 58 U/L
AST (Serum parameter analysis; [2]): 122 U/L
CK (Serum parameter analysis; [2]): 180.7 U/L
Creatinine (Serum parameter analysis; [2]): 16.67 µmol/L
Urea (Serum parameter analysis; [2]): 6.32 mmol/L
ALT (Serum parameter analysis; [3]): 88.88 U/L
AST (Serum parameter analysis; [3]): 200* U/L
CK (Serum parameter analysis; [4]): 372.6 U/L
Creatinine (Serum parameter analysis; [4]): 27.67** µmol/L
Urea (Serum parameter analysis; [4]): 15.09* mmol/L
ALT (Serum parameter analysis; [5]): 63.5 U/L
AST (Serum parameter analysis; [5]): 183.8 U/L
CK (Serum parameter analysis; [5]): 586.3* U/L
Creatinine (Serum parameter analysis; [5]): 22.25 µmol/L
Urea (Serum parameter analysis; [5]): 11.08 mmol/L
HCT (Blood parameter analysis; [2]): 43.5** %
HGB (Blood parameter analysis; [2]): 15.9* g/dL
PLT (Blood parameter analysis; [2]): 797 10^3/µl
RBC (Blood parameter analysis; [2]): 10.23 10^6/µl
WBC (Blood parameter analysis; [2]): 5.63 10^3/µl
HCT (Blood parameter analysis; [6]): 40.5%
HGB (Blood parameter analysis; [6]): 15.08 g/dL
RBC (Blood parameter analysis; [6]): 9.45 10^6/µl
WBC (Blood parameter analysis; [6]): 4.85** 10^3/µl
HCT (Blood parameter analysis; [7]): 41.6%
HGB (Blood parameter analysis; [7]): 15.38 g/dL
PLT (Blood parameter analysis; [7]): 1147** 10^3/µl
RBC (Blood parameter analysis; [7]): 9.81e+06 µL⁻¹
WBC (Blood parameter analysis; [7]): 3.68** 10^3/µl

caspase-3 activation, liver (active caspase-3; [8]): 3.0 ± 0.1 % area
caspase-3 activation, lungs (active caspase-3; [8]): 0.4 ± 0.1 % area
CK (Serum parameter analysis; [9]): 141.5 U/L
Creatinine (Serum parameter analysis; [9]): 11.17 µmol/L
Urea (Serum parameter analysis; [9]): 7.81 mmol/L
CK (Serum parameter analysis; [10]): 160.2 U/L
Creatinine (Serum parameter analysis; [10]): 12.6 µmol/L
Urea (Serum parameter analysis; [10]): 7.19 mmol/L
HCT (Blood parameter analysis; [9]): 42.0%
HGB (Blood parameter analysis; [9]): 15.2 g/dL
PLT (Blood parameter analysis; [9]): 849.3 10^3/µl
RBC (Blood parameter analysis; [9]): 9.79 10^6/µl
WBC (Blood parameter analysis; [9]): 4730 µL⁻¹
HCT (Blood parameter analysis; [11]): 35.2%
HGB (Blood parameter analysis; [11]): 13.3 g/dL
PLT (Blood parameter analysis; [11]): 1.175e+06 µL⁻¹
RBC (Blood parameter analysis; [11]): 8.32 10^6/µl
WBC (Blood parameter analysis; [11]): 4940 µL⁻¹
SMILES: CS(=O)(=O)OCCCCOS(C)(=O)=O [Busulfan]
ALT (Serum parameter analysis; [9]): 55.33 U/L
AST (Serum parameter analysis; [9]): 82.5 U/L
ALT (Serum parameter analysis; [10]): 87.1 U/L
AST (Serum parameter analysis; [10]): 84.4 U/L

caspase-3 activation, liver (active caspase-3; [12]): 3.5 ± 1.5 % area
caspase-3 activation, lungs (active caspase-3; [12]): 0.7 ± 0.1 % area
caspase-3 activation, heart (active caspase-3; [13]): 2.2 ± 0.7 % area
caspase-3 activation, kidneys (active caspase-3; [13]): 1.1 ± 0.3 % area
caspase-3 activation, lungs (active caspase-3; doxorubicin 4 mg/kg BW i.p., day 8, n = 3, mean ± SD): 0.6 ± 0.2 % area
CK (Serum parameter analysis; [14]): 109.7 U/L
Creatinine (Serum parameter analysis; [14]): 15.33* µmol/L
Urea (Serum parameter analysis; [14]): 7.73 mmol/L
CK (Serum parameter analysis; [15]): 195.3* U/L
Creatinine (Serum parameter analysis; [15]): 16.25** µmol/L
Urea (Serum parameter analysis; [15]): 7 mmol/L
HCT (Blood parameter analysis; [14]): 41.2%
PLT (Blood parameter analysis; [14]): 1011 10^3/µl
RBC (Blood parameter analysis; [14]): 9.62 10^6/µl
WBC (Blood parameter analysis; [14]): 9.2 10^3/µl
HCT (Blood parameter analysis; [15]): 34.1*** %
PLT (Blood parameter analysis; [15]): 1.106e+06 µL⁻¹
RBC (Blood parameter analysis; [15]): 7.98*** 10^6/µl
WBC (Blood parameter analysis; [15]): 6.5 10^3/µl
SMILES: COc1cccc2c1C(=O)c1c(O)c3c(c(O)c1C2=O)C[C@@](O)(C(=O)CO)C[C@@H]3O[C@H]1C[C@H](N)[C@H](O)[C@H](C)O1 [Doxorubicin]
ALT (Serum parameter analysis; [14]): 90.33** U/L
AST (Serum parameter analysis; [14]): 94.67 U/L
ALT (Serum parameter analysis; [15]): 52.25 U/L
AST (Serum parameter analysis; [15]): 96.5 U/L
